# How the values were obtained:
# [1] = tested on: HLA A24; assay: MHC stabilization assay on T2 cells; type: cell-based, human; conditions: HLA A24 on transfected T2 cells; relative increase vs no peptide at 26° C.
# [2] = molecular target: T1, HLA B7 (Homo sapiens, UniProt P01889); type: cell-based; conditions: HLA B7 on transfected T2 cells; relative increase vs no peptide at 26° C.
# T1 construct: expressed in transfected cells; host or cells: T2 cells
# [3] = tested on: PBMC from healthy HCMV seropositive donors; assay: IFN-γ ELISPOT assay; type: cell-based, human; conditions: peptide 10 μg/ml
# How it was run: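 IFN-γ-secreting T cells were counted as spots, with no-peptide control wells subtracted and means taken from triplicate wells. These spots came from healthy seropositive carriers' PBMC, 2.5×10^5 per well.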
# [4] = tested on: HLA B8; assay: MHC stabilization assay on T2 cells; type: cell-based, human; conditions: HLA B8 on transfected T2 cells; relative increase vs no peptide at 26° C.
# [5] = tested on: peptide-sensitized autologous PHA blasts or LCLs; type: cell-based, human; design: key to CTL response: Y: Yes; ND: Not detected; conditions: predicted epitopes, Table 3
# [6] = molecular target: T2, HLA A3 (Homo sapiens, UniProt P04439); assay: MHC stabilization assay on T2 cells; type: cell-based; conditions: HLA A3 on transfected T2 cells; relative increase vs no peptide at 26° C.
# T2 construct: EGFP; expressed in transfected cells; host or cells: T2 cells
# T2 sequence (P04439 25-365): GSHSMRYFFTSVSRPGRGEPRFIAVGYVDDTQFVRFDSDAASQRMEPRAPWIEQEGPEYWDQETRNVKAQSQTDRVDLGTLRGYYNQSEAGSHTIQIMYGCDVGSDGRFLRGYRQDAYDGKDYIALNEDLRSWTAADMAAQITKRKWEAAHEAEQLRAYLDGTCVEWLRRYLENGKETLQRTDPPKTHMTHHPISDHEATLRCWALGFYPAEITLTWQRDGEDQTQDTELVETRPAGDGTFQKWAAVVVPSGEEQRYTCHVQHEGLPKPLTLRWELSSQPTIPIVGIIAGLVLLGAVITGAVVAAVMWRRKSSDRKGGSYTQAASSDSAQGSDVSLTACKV
# T2 sequence (P61769 21-119, further chain): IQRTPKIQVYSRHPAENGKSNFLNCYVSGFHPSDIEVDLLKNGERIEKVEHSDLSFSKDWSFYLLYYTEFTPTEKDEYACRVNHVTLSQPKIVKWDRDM
# T1 sequence (P01889 25-362): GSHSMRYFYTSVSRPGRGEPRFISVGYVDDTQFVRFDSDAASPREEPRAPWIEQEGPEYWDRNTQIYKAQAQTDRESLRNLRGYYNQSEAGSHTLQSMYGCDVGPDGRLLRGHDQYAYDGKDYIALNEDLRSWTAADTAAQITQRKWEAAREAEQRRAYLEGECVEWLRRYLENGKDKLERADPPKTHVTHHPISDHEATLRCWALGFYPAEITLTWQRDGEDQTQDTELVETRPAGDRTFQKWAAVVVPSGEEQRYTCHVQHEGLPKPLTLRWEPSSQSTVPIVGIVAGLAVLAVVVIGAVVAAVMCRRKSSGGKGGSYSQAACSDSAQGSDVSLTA
# T1 sequence (P61769 21-119, further chain): as the sequence (P61769 21-119, further chain) above
sequence,measurement,setting,value
AYEYVDYLF (human cytomegalovirus gB CTL epitope peptide),MSE (MHC stabilization efficiency),[1],− (− = 0-50%)
TPMLLIFGHL (human cytomegalovirus gH CTL epitope peptide),MSE (MHC stabilization efficiency),[2],++ (++ = 100-199%)
QARLTVSGL,MSE (MHC stabilization efficiency),[2],+++ (+++ = 200-300%)
same,ELISPOT Responses (SFC/10^6 PBMC),[3]; donor four,MB(1116) SFC/10^6 PBMC
MPRCLFAGPL (human cytomegalovirus gH CTL epitope peptide),MSE (MHC stabilization efficiency),[2],+++ (+++ = 200-300%)
KARDHLAVL (human cytomegalovirus pp150 CTL epitope peptide),MSE (MHC stabilization efficiency),[2],+++ (+++ = 200-300%)
same,ELISPOT Responses (SFC/10^6 PBMC),[3]; donor four,MB(975) SFC/10^6 PBMC
SPRTHYLML (human cytomegalovirus gH CTL epitope peptide),MSE (MHC stabilization efficiency),[2],+++ (+++ = 200-300%)
SYVVTNQYL (human cytomegalovirus gH CTL epitope peptide),MSE (MHC stabilization efficiency),[1],− (− = 0-50%)
AYIYTTYLL (human cytomegalovirus gB CTL epitope peptide),MSE (MHC stabilization efficiency),[1],− (− = 0-50%)
NYLDLSALL (human cytomegalovirus gH CTL epitope peptide),MSE (MHC stabilization efficiency),[1],− (− = 0-50%)
ELRRKMMYM (human cytomegalovirus IE1 CTL epitope peptide),MSE (MHC stabilization efficiency),[4],++ (++ = 100-199%)
same,ELISPOT Responses (SFC/10^6 PBMC),[3]; donor eleven,430 SFC/10^6 PBMC
same,ELISPOT Responses (SFC/10^6 PBMC),[3]; donor epsilon,1243 SFC/10^6 PBMC
same,ELISPOT Responses (SFC/10^6 PBMC),[3]; donor one,145 SFC/10^6 PBMC
same,ELISPOT Responses (SFC/10^6 PBMC),[3]; donor sixteen,4999 SFC/10^6 PBMC
same,CTL response,[5],Y
FPDLFCLPL (human cytomegalovirus gH CTL epitope peptide),MSE (MHC stabilization efficiency),[2],+++ (+++ = 200-300%)
SPWAPTAPL (human cytomegalovirus pp150 CTL epitope peptide),MSE (MHC stabilization efficiency),[2],+++ (+++ = 200-300%)
same,ELISPOT Responses (SFC/10^6 PBMC),[3]; donor four,MB(180) SFC/10^6 PBMC
LYLCCGITL (human cytomegalovirus US6 CTL epitope peptide),MSE (MHC stabilization efficiency),[1],− (− = 0-50%)
QIKVRVDMV (human cytomegalovirus IE1 CTL epitope peptide),MSE (MHC stabilization efficiency),[4],+ (+ = 51-99%)
same,ELISPOT Responses (SFC/10^6 PBMC),[3]; donor eleven,2425 SFC/10^6 PBMC
same,ELISPOT Responses (SFC/10^6 PBMC),[3]; donor epsilon,2848 SFC/10^6 PBMC
same,ELISPOT Responses (SFC/10^6 PBMC),[3]; donor one,475 SFC/10^6 PBMC
same,ELISPOT Responses (SFC/10^6 PBMC),[3]; donor sixteen,2251 SFC/10^6 PBMC
same,CTL response,[5],Y
SYRSFSQQL (human cytomegalovirus gH CTL epitope peptide),MSE (MHC stabilization efficiency),[1],− (− = 0-50%)
TPRVYYQTL (human cytomegalovirus US11 CTL epitope peptide),MSE (MHC stabilization efficiency),[2],+++ (+++ = 200-300%)
TYALVSKDL (human cytomegalovirus gH CTL epitope peptide),MSE (MHC stabilization efficiency),[1],− (− = 0-50%)
LCPKSIPGL,MSE (MHC stabilization efficiency),[4],− (− = 0-50%)
ELKRKMMYM (human cytomegalovirus IE1 CTL epitope peptide),MSE (MHC stabilization efficiency),[4],− (− = 0-50%)
same,ELISPOT Responses (SFC/10^6 PBMC),[3]; donor eleven,300 SFC/10^6 PBMC
same,ELISPOT Responses (SFC/10^6 PBMC),[3]; donor epsilon,"SC(1000), SFC/10^6 PBMC"
same,ELISPOT Responses (SFC/10^6 PBMC),[3]; donor gamma,100 SFC/10^6 PBMC
same,ELISPOT Responses (SFC/10^6 PBMC),[3]; donor sixteen,4999 SFC/10^6 PBMC
same,ELISPOT Responses (SFC/10^6 PBMC),[3]; donor three,1992 SFC/10^6 PBMC
same,CTL response,[5],Y
YYVFHMPRCL (human cytomegalovirus gH CTL epitope peptide),MSE (MHC stabilization efficiency),[1],− (− = 0-50%)
VYVTVDCNL (human cytomegalovirus US2 CTL epitope peptide),MSE (MHC stabilization efficiency),[1],− (− = 0-50%)
CYSRPVVIF (human cytomegalovirus gB CTL epitope peptide),MSE (MHC stabilization efficiency),[1],− (− = 0-50%)
KARAKKDEL (human cytomegalovirus IE1 CTL epitope peptide),MSE (MHC stabilization efficiency),[2],−/− (− = 0-50%)
same,MSE (MHC stabilization efficiency),[4],−/− (− = 0-50%)
same,ELISPOT Responses (SFC/10^6 PBMC),[3]; donor eleven,235 SFC/10^6 PBMC
same,ELISPOT Responses (SFC/10^6 PBMC),[3]; donor four,231 SFC/10^6 PBMC
SYENKTMQL (human cytomegalovirus gB CTL epitope peptide),MSE (MHC stabilization efficiency),[1],− (− = 0-50%)
MYMHDSDDVL (human cytomegalovirus gH CTL epitope peptide),MSE (MHC stabilization efficiency),[1],− (− = 0-50%)
VYLFSLVVL (human cytomegalovirus US3 CTL epitope peptide),MSE (MHC stabilization efficiency),[1],− (− = 0-50%)
VMKRRIEEI (human cytomegalovirus IE1 CTL epitope peptide),MSE (MHC stabilization efficiency),[4],+ (+ = 51-99%)
RLLDLAPNY (human cytomegalovirus pp28 CTL epitope peptide),MSE (MHC stabilization efficiency),[6],+++ (+++ = 200-300%)
EYIVQIQNAF (human cytomegalovirus pp71 CTL epitope peptide),MSE (MHC stabilization efficiency),[1],+++ (+++ = 200-300%)
EPMSIYVYAL,MSE (MHC stabilization efficiency),[2],+ (+ = 51-99%)
APVAGSMPEL (human cytomegalovirus US11 CTL epitope peptide),MSE (MHC stabilization efficiency),[2],+++ (+++ = 200-300%)
SYLKDSDFL (human cytomegalovirus gH CTL epitope peptide),MSE (MHC stabilization efficiency),[1],− (− = 0-50%)
SLRNSTVVR (human cytomegalovirus gH CTL epitope peptide),MSE (MHC stabilization efficiency),[6],+++ (+++ = 200-300%)
PRKKKSKRI (human cytomegalovirus IE2 CTL epitope peptide),MSE (MHC stabilization efficiency),[4],− (− = 0-50%)
QPKRRRHRQ,MSE (MHC stabilization efficiency),[4],− (− = 0-50%)
IMREFNSYK (human cytomegalovirus gB CTL epitope peptide),MSE (MHC stabilization efficiency),[6],+++ (+++ = 200-300%)
same,ELISPOT Responses (SFC/10^6 PBMC),[3]; donor four,MB(202) SFC/10^6 PBMC
TVRSHCVSK (human cytomegalovirus pp50 CTL epitope peptide),MSE (MHC stabilization efficiency),[6],+++ (+++ = 200-300%)
TYGRPIRFL (human cytomegalovirus gH CTL epitope peptide),MSE (MHC stabilization efficiency),[1],− (− = 0-50%)
RLFPDATVP (human cytomegalovirus gH CTL epitope peptide),MSE (MHC stabilization efficiency),[6],− (− = 0-50%)
ALTVSEHVSY (human cytomegalovirus gH CTL epitope peptide),MSE (MHC stabilization efficiency),[6],++ (++ = 100-199%)
AIIGIYLLY (human cytomegalovirus gH CTL epitope peptide),MSE (MHC stabilization efficiency),[6],NT/+++ (+++ = 200-300%)
GIKHEGLVK (human cytomegalovirus pp28 CTL epitope peptide),MSE (MHC stabilization efficiency),[6],+++ (+++ = 200-300%)
RVTGGGAMA,MSE (MHC stabilization efficiency),[6],− (− = 0-50%)
VLCPKNMII [reference compound],MSE (MHC stabilization efficiency),[4],− (− = 0-50%)
KYTQTEEKF (human cytomegalovirus IE1 CTL epitope peptide),MSE (MHC stabilization efficiency),[1],− (− = 0-50%)
RLNTYALVSK (human cytomegalovirus gH CTL epitope peptide),MSE (MHC stabilization efficiency),[6],+++ (+++ = 200-300%)
APYQRDNFIL (human cytomegalovirus gH CTL epitope peptide),MSE (MHC stabilization efficiency),[2],+++ (+++ = 200-300%)
WPRERAWAL (human cytomegalovirus pp150 CTL epitope peptide),MSE (MHC stabilization efficiency),[2],+++ (+++ = 200-300%)
same,MSE (MHC stabilization efficiency),[4],++ (++ = 100-199%)
same,ELISPOT Responses (SFC/10^6 PBMC),[3]; donor sixteen,TC(67) SFC/10^6 PBMC
QLNRHSYLK (human cytomegalovirus gH CTL epitope peptide),MSE (MHC stabilization efficiency),[6],+++ (+++ = 200-300%)
NVRRSWEEL (human cytomegalovirus pp150 CTL epitope peptide),MSE (MHC stabilization efficiency),[2],++ (++ = 100-199%)
same,ELISPOT Responses (SFC/10^6 PBMC),[3]; donor five,274 SFC/10^6 PBMC
same,ELISPOT Responses (SFC/10^6 PBMC),[3]; donor four,1431 SFC/10^6 PBMC
TLLNCAVTK (human cytomegalovirus pp50 CTL epitope peptide),MSE (MHC stabilization efficiency),[6],+++ (+++ = 200-300%)
LLLQRGPQY,MSE (MHC stabilization efficiency),[6],+++ (+++ = 200-300%)
VYALPLKML,MSE (MHC stabilization efficiency),[1],− (− = 0-50%)
VYYTSAFVF,MSE (MHC stabilization efficiency),[1],− (− = 0-50%)
IIYTRNHEVK (human cytomegalovirus IE2 CTL epitope peptide),MSE (MHC stabilization efficiency),[6],+++ (+++ = 200-300%)
QYILGADPL (human cytomegalovirus IE1 CTL epitope peptide),MSE (MHC stabilization efficiency),[1],+++ (+++ = 200-300%)
IMKDKNTPF (human cytomegalovirus IE2 CTL epitope peptide),MSE (MHC stabilization efficiency),[4],+++ (+++ = 200-300%)
SPRTHYLMLL (human cytomegalovirus gH CTL epitope peptide),MSE (MHC stabilization efficiency),[2],+++ (+++ = 200-300%)
RHRIKEHML (human cytomegalovirus IE1 CTL epitope peptide),MSE (MHC stabilization efficiency),[4],− (− = 0-50%)
LVEPCARVY (human cytomegalovirus pp28 CTL epitope peptide),MSE (MHC stabilization efficiency),[6],NT/++ (++ = 100-199%)
